Test results taken from patent publication US8658668B2, “PI3 kinase/mTOR dual inhibitor” (Eli Lilly and Company, priority 2011, dated 2014).
pIC50: −log10 of the molar value.

Columns and labels:
AKT1(pT308) = experiment: AlphaScreen SureFire p-AKT (Thr308) in U87MG cells; assay type: cell-based; conditions: Homo sapiens, U-87 MG, 1 h, n = 4, read-out: AKT1(pT308) Absolute IC50
Procedure: This homogeneous assay format uses immuno-sandwich capture of the phosphorylated analyte and then detection with antibody-coated Alphascreen beads to generate an amplified signal.
Maintain U87MG cells in U87MG growth medium consisting of DMEM (GIBCO 11965-092) supplemented with 10% fetal bovine serum (FBS, GIBCO, 10091-141), 1% nonessential amino acids (GIBCO, 11140-050) and 1% sodium pyruvate (GIBCO, 11360-070). Harvest cells using standard cell culture procedures and then count using Vi-Cell. Plate 100 μL of U87MG cells in growth medium (50,000 cells/well) into Costar #3596 96 well plates and incubate overnight at 37° C., 5% CO2.
Incubate for one h at 37° C., then remove the medium and add 50 μL of 1× SureFire Lysis Buffer (TGR Biosciences SureFire® Kit component) to each well and incubate at room temperature for 10 min with gentle shaking Transfer 6 μL lysate and 10 μL reaction mixture (60 parts reaction buffer/10 parts activation buffer/1 part each of donor and acceptor beads, Perkin Elmer, 6760617R) to a 384 well proxiplate (Perkin Elmer, 6006280) for the p-p70S6 kinase (Thr389) and p-AKT(Ser473) assays. Seal the plate and incubate at RT for 4 h. […] Read the plates on a Perkin Elmer EnVision equipped with a TurboModule using standard AlphaScreen® settings (Ex680 nm and Em520-620 nm). […]

[1] = system: GXF 1172 human tumor xenograft cells; experiment: Oncotest tumor clonogenic assay, GXF 1172; assay type: cell-based; conditions: colony formation, Gastric GXF 1172, signet-ring cell carcinoma, pd, read-out: Absolute IC50
[2] = system: LXFA 526 human tumor xenograft cells; experiment: Oncotest tumor clonogenic assay, LXFA 526; assay type: cell-based; conditions: colony formation, NSCLC LXFA 526, adeno carcinoma, pd, read-out: Absolute IC50
[3] = system: MAXF 1322 human tumor xenograft cells; experiment: Oncotest tumor clonogenic assay, MAXF 1322; assay type: cell-based; conditions: colony formation, Mammary MAXF 1322, pap. adeno carcinoma, pd, read-out: Absolute IC50
[4] = system: PXF 541 human tumor xenograft cells; experiment: Oncotest tumor clonogenic assay, PXF 541; assay type: cell-based; conditions: colony formation, Pleuramesothelioma PXF 541, invasive pleuramesothelioma, read-out: Absolute IC50
pT389 p70S6K = experiment: In vivo target inhibition in U87MG tumors, pT389 p70S6K; conditions: Mus musculus, U-87 MG; for inhibition at 0.5 mg/kg: 0.5 mg/kg oral; for inhibition at 1.5 mg/kg: 1.5 mg/kg oral; for inhibition at 3 mg/kg: 3 mg/kg oral; for inhibition at 6 mg/kg: 6 mg/kg oral; for inhibition at 10 mg/kg: 10 mg/kg oral; for inhibition at 12 mg/kg: 12 mg/kg oral
Procedure: Implant U87MG human glioblastoma cells (5×10^6) subcutaneously into the flank of athymic nude mice in 0.2 mL of matrigel. Ten days post-implantation, dose mice orally according to a time course, single dose/single time point, or dose response protocol for the determination of TMED50 (threshold minimum effective dose). Flash freeze tumors at harvest and collect blood for the determination of parent compound plasma exposure and the calculation of TMEC50 (threshold minimum effective concentration) in the case of dose response studies. Homogenize tumors in 500 μL of XY Lysis Buffer (10 μg/mL Leupeptin, 10 μg/mL Trypsin-Chymotrypsin Inhibitor, 10 μg/mL Tosyl phenyl-alanyl chloromethyl ketone, 10 μg/mL Aprotinin, 60 mM Beta-Glycerol Phosphate, 1% Triton X100, 25 mM Tris pH 7.5, 2.5 mM Pyrophosphate, 150 mM NaCl, 2 mM p-tosyl-L-arginine methyl ester, 15 mM para-nitrophenyl phosphate, 5 mM benzamidine, 1 mM sodium vanadate, 10 mM sodium fluoride, 50 μg/mL phenyl-methane sulfonyl fluoride, 1 mM 1,4-dithiothreitol (DTT), 15 mM EDTA pH 8.0, 5 mM EGTA pH 8.0, 1 μM Microcystin, 1 μM Okadaic Acid, and 1 Roche Complete protease inhibitor mini-tablet per 10 mL) using RNase Free Pellet Pestle (Kimble-Kontes). Aliquot lysates and either assay immediately or store at −80° C. for later testing. Use the multiplex format of Meso Scale Discovery (Gaithersburg, Md.) ELISA technology and measure in vivo target inhibition of PI3K and mTOR to assess effects on phosphorylation of the threonine 308 site of AKT, a downstream effector of PI3K; phosphorylation on the threonine 389 site of p70 S6K and on the serine 240/244 site of S6RP, downstream effectors of mTORC1; phosphorylation of the serine 473 site of AKT, a downstream effector of mTORC2. Add 20 μg of lysate to carbon electrode containing 96-well plates pre-spotted with the appropriate capture antibodies. Probe the protein of interest using a ruthenium labeled detection antibody. Pass current over the electrode in the presence of read buffer containing the co-reactant TPA, and quantitate and record the light generated by electro-chemiluminescence with the MSD Sector 6000 instrument. Calculate percent inhibitions relative to the vehicle control group and perform ANOVA analysis using the JMP software package for the determination of statistical significance.

CO[C@@H](C)Cn1c(=O)n(C)c2cnc3ccc(-c4cncc(C(C)(C)O)c4)cc3c21 [Example 1, 8-[5-(1-Hydroxy-1-methylethyl)pyridin-3-yl]-1-[(2S)-2-methoxypropyl]-3-methyl-1,3-dihydro-2H-imidazo[4,5-c]quinolin-2-one]
pIC50 (AKT1(pT308)): 6.97
pIC50 [1]: 6.85
pIC50 [2]: 7.08
pIC50 [3]: 8.52
pIC50 [4]: 7.25
inhibition at 0.5 mg/kg (pT389 p70S6K; 0.5 hr post dose): 62%
inhibition at 0.5 mg/kg (pT389 p70S6K; 4 hr post dose): 7%
inhibition at 1.5 mg/kg (pT389 p70S6K; 0.5 hr post dose): 84%
inhibition at 1.5 mg/kg (pT389 p70S6K; 4 hr post dose): 38%
inhibition at 3 mg/kg (pT389 p70S6K; 0.25 hr post dose): 77%
inhibition at 3 mg/kg (pT389 p70S6K; 0.5 hr post dose): 89%
inhibition at 3 mg/kg (pT389 p70S6K; 1 hr post dose): 89%
inhibition at 3 mg/kg (pT389 p70S6K; 3 hr post dose): 77%
inhibition at 3 mg/kg (pT389 p70S6K; 4 hr post dose): 64%
inhibition at 6 mg/kg (pT389 p70S6K; 0.25 hr post dose): 88%
inhibition at 6 mg/kg (pT389 p70S6K; 0.5 hr post dose): 91%
inhibition at 6 mg/kg (pT389 p70S6K; 1 hr post dose): 90%
inhibition at 6 mg/kg (pT389 p70S6K; 2 hr post dose): 87%
inhibition at 6 mg/kg (pT389 p70S6K; 4 hr post dose): 68%
inhibition at 6 mg/kg (pT389 p70S6K; 6 hr post dose): 61%
inhibition at 6 mg/kg (pT389 p70S6K; 12 hr post dose): 14%
inhibition at 10 mg/kg (pT389 p70S6K; 0.5 hr post dose): 93%
inhibition at 10 mg/kg (pT389 p70S6K; 1 hr post dose): 92%
inhibition at 10 mg/kg (pT389 p70S6K; 2 hr post dose): 92%
inhibition at 10 mg/kg (pT389 p70S6K; 4 hr post dose): 91%
inhibition at 10 mg/kg (pT389 p70S6K; 8 hr post dose): 55%
inhibition at 12 mg/kg (pT389 p70S6K; 0.5 hr post dose): 92%
inhibition at 12 mg/kg (pT389 p70S6K; 4 hr post dose): 90%
